Patent US4316839A, “Imidazodiazepine derivatives” (Hoffman-La Roche Inc., priority 1979, dated 1982)

Experiments:
[1] = tested on: diazepam effect in the pentetrazole test; assay: pentetrazole test: antagonism of the diazepam effect in mice; assay type: in vivo; settings: for ED50: Mus musculus, po, mice, diazepam 5 mg/kg i.p. 1 hour and test compound 15 min before pentetrazole 120 mg/kg i.p.
Procedure: This property was used as a basis for the test described hereinafter which permits the determination of compounds which are capable of antagonising the central properties of 1,4-benzodiazepines which have tranquillising activity.
The antagonistic activity of the compounds tested, i.e. their ability to counteract the activity of diazepam in the pentetrazole test, is determined by counting the mice which suffer spasmodic seizures in this test.
(§1) In the following Table there are compiled the results which have been obtained with representative compounds of formula I. The ED50 value is given for each compound listed in the Table. The ED50 is the amount of the test compound in mg/kg (p.o.) which counteracts in 50% of the animals the diazepam effect in the foregoing test. Moreover, the Table contains the IC50 value (defined hereinbefore) for all test compounds listed therein as well as details concerning the acute toxicity of certain compounds (LD50 in mg/kg following single oral administration to mice).

[2] = molecular target: specific benzodiazepine receptors in the cerebral cortex; assay: inhibition of the binding of tritiated diazepam at the specific benzodiazepine receptors in the cerebral cortex
Procedure: The affinity of compounds of formula I to the central benzodiazepine receptors was determined according to the method described in Life Science 20, 2101-2110 (1977) and Science 198, 849-851 (1977). According to this method, the inhibition of the binding of tritiated diazepam at the specific benzodiazepine receptors in the cerebral cortex by test substances is ascertained. The IC50 ("50% inhibiting concentration") is that concentration of the test substance which brings about a 50 percent inhibition of the specific binding of the tritiated diazepam at the specific benzodiazepine receptors in the cerebral cortex.
as §1

[3] = acute toxicity following single oral administration to mice; settings: mouse, in vivo
From the text: as §1

[4] = tested on: central activities of diazepam; assay: antagonism of the central activities of diazepam (sleep/waking behaviour) in male albino rats; assay type: in vivo
From the text: Male albino rats (body weight about 165 g) are used for this test.

[5] = compounds of formula I with A = group (a)
[6] = 20 mg/kg i.p., then after 30 min diazepam 5 mg/kg i.v.
[7] = thieno derivatives, A = group (b)

SMILES | ED50 [1] [mg/kg] | IC50 [2, 5] [µM] | further results
CCOC(=O)c1ncn2c1C1C=CCN1C(=O)c1ccccc1-2 (racemic) [Example 43, ethyl (R,S)-11,13a-dihydro-9-oxo-9H-imidazo[1,5-a]pyrrolo[2,1-c][1,4]benzodiazepine-1-carboxylate] | 3.9 | 2.3 | –
COC(=O)c1ncn2c1CN(C)C(=O)c1cc(F)ccc1-2 [Example 3, methyl 8-fluoro-5,6-dihydro-5-methyl-6-oxo-4H-imidazo[1,5-a][1,4]benzodiazepine-3-carboxylate] | 4.9 | 6 | –
CC(C)OC(=O)c1ncn2c1CN(C)C(=O)c1cc(F)ccc1-2 [Example 4, isopropyl 8-fluoro-5,6-dihydro-5-methyl-6-oxo-4H-imidazo [1,5-a][1,4]benzodiazepine-3-carboxylate] | 6.6 | 3.9 | LD50 [3]: > 5000 mg/kg
CCOC(=O)c1ncn2c1CN(C)C(=S)c1cc(F)ccc1-2 [Example 6, ethyl 8-fluoro-5,6-dihydro-5-methyl-6-thioxo-4H-imidazo[1,5-a][1,4]benzodiazepine-3-carboxylate] | 6.3 | 2.5 | –
CN1Cc2c(C#N)ncn2-c2ccc(F)cc2C1=O [Example 7, 8-fluoro-5,6-dihydro-5-methyl-6-oxo-4H-imidazo[1,5-a][1,4]benzodiazepine-3-carbonitrile] | 4.2 | 93 | –
CCOC(=O)c1ncn2c1CN(C)C(=O)c1c(F)cccc1-2 [Example 10, ethyl 7-fluoro-5,6-dihydro-5-methyl-6-oxo-4H-imidazo[1,5-a][1,4]benzodiazepine-3-carboxylate] | 2.1 | 2 | LD50 [3]: > 5000 mg/kg
CCOC(=O)c1ncn2c1C1C=CCN1C(=O)c1c(F)cccc1-2 (stereo not drawn) [Example 11, ethyl 8-fluoro-11,13a-dihydro-9-oxo-9H-imidazo[1,5-a]pyrrolo[2,1-c][1,4]benzodiazepine-1-carboxylate] | 1.8 | 2.1 | LD50 [3]: 500 to 1000 mg/kg
CCOC(=O)c1ncn2c1[C@@H]1CCCN1C(=O)c1cc(F)ccc1-2 [Example 12, ethyl (S)-7-fluoro-11,12,13,13a-tetrahydro-9-oxo-9H-imidazo[1,5-a]pyrrolo[2,1-c][1,4]benzodiazepine-1-carboxylate] | 8.9 | 6 | –
CCOC(=O)c1ncn2c1CN(C)C(=O)c1c(Cl)cccc1-2 [Example 13, ethyl 7-chloro-5,6-dihydro-5-methyl-6-oxo-4H-imidazo[1,5-a][1,4]benzodiazepine-3-carboxylate] | 0.48 | 3 | –
CCOC(=O)c1ncn2c1[C@@H]1CCCN1C(=O)c1c(Cl)cccc1-2 [Example 14, ethyl (S)-8-chloro-11,12,13,13a-tetrahydro-9-oxo-9H-imidazo[1,5-a]pyrrolo[2,1-c][1,4]benzodiazepine-1-carboxylate] | 1 | 1.7 | LD50 [3]: 750 to 1500 mg/kg
CCOC(=O)c1ncn2c1CN(C)C(=O)c1ccccc1-2 [Example 16, ethyl 5,6-dihydro-5-methyl-6-oxo-4H-imidazo[1,5-a][1,4]benzodiazepine-3-carboxylate] | 10.9 | 3 | waking of diazepam-treated animals ([4]; 5 mg/kg i.v., 5 or 15 min after diazepam 5 mg/kg i.v. or 30 min after diazepam 10 mg/kg i.p.): the animals stand up immediately and move around; behaviour after test substance alone ([4]; 20 mg/kg i.p.): the animals remain awake and show a normal behaviour; duration of waking phase [4, 6]: at least 30 minutes; symptoms after subsequent diazepam [4, 6]: in the first 2 minutes after the injection slight sedation and ataxia, but these symptoms rapidly disappear; antagonism of the central activities of diazepam ([4]; rats, overall finding): antagonises the central activities of the known 1,4-benzodiazepine derivative diazepam; LD50 [3]: > 5000 mg/kg
CN1Cc2c(C#N)ncn2-c2ccccc2C1=O [Example 18, 5,6-dihydro-5-methyl-6-oxo-4H-imidazo[1,5-a][1,4]benzodiazepine-3-carbonitrile] | 2.6 | 100 | LD50 [3]: 1250 mg/kg
COC(=O)c1ncn2c1CN(C)C(=O)c1ccccc1-2 [Example 24, methyl 5,6-dihydro-5-methyl-6-oxo-4H-imidazo[1,5-a][1,4]benzodiazepine-3-carboxylate] | 13.5 | 9 | –
CC(C)OC(=O)c1ncn2c1CN(C)C(=O)c1ccccc1-2 [Example 25, isopropyl 5,6-dihydro-5-methyl-6-oxo-4H-imidazo[1,5-a][1,4]benzodiazepine 3-carboxylate] | 7 | 12 | –
CCOC(=O)c1ncn2c1CN(C)C(=S)c1ccccc1-2 [Example 27, ethyl 5,6-dihydro-5-methyl-6-thioxo-4H-imidazo[1,5-a][1,4]benzodiazepine-3-carboxylate] | 8.9 | 6 | –
CCOC(=O)c1ncn2c1CN(C)C(=O)c1c(C)cccc1-2 [Example 28, ethyl 5,6-dihydro-5,7-dimethyl-6-oxo-4H-imidazo[1,5-a][1,4]benzodiazepine-3-carboxylate] | 7.1 | 5 | –
CCOC(=O)c1ncn2c1[C@@H]1CCCN1C(=O)c1c(C)cccc1-2 [Example 29, ethyl (S)-11,12,13,13a-tetrahydro-8-methyl-9-oxo-9H-imidazo[1,5-a]pyrrolo[2,1-c]benzodiazepine-1-carboxylate] | 6.5 | 5 | –
COC(=O)c1ncn2c1[C@@H]1CCCN1C(=O)c1ccccc1-2 [Example 31, methyl (S)-11,12,13,13a-tetrahydro-9-oxo-9H-imidazo[1,5-a]pyrrolo[2,1-c][1,4]benzodiazepine-1-carboxylate] | 3.5 | 32 | LD50 [3]: 2000 to 4000 mg/kg
CC(C)OC(=O)c1ncn2c1[C@@H]1CCCN1C(=O)c1ccccc1-2 [Example 33, isopropyl (S)-11,12,13,13a-tetrahydro-9-oxo-9H-imidazo[1,5-a]pyrrolo[2,1-c][1,4]benzodiazepine-1-carboxylate] | 18.6 | 3 | –
CCOC(=O)c1ncn2c1[C@@H]1CCCN1C(=O)c1sccc1-2 [Example 34, ethyl (S)-10,11,12,12a-tetrahydro-8-oxo-8H-imidazo[5,1-c]pyrrolo[1,2-a]thieno[3,2-e][1,4]diazepine-1-carboxylate] | 1.3 | – | IC50 [2, 7]: 0.0009 µM
COC(=O)c1ncn2c1[C@@H]1CCCN1C(=O)c1sccc1-2 [Example 35, methyl (S)-10,11,12,12a-tetrahydro-8-oxo-8H-imidazo[5,1-c]pyrrolo[1,2-a]thieno[3,2-e][1,4]diazepine-1-carboxylate] | 0.22 | – | IC50 [2, 7]: 0.0021 µM
CCOC(=O)c1ncn2c1CN(C)C(=O)c1sccc1-2 [Example 36, ethyl 5,6-dihydro-5-methyl-6-oxo-4H-imidazo[1,5-a]thieno[2,3-f][1,4]diazepine-3-carboxylate] | 12.6 | – | IC50 [2, 7]: 0.0011 µM
COC(=O)c1ncn2c1CN(C)C(=O)c1sccc1-2 [Example 37, methyl 5,6-dihydro-5-methyl-6-oxo-4H-imidazo[1,5-a]thieno[2,3-f][1,4]diazepine-3-carboxylate] | 0.83 | – | IC50 [2, 7]: 0.0012 µM
N#Cc1ncn2c1[C@@H]1CCCN1C(=O)c1ccccc1-2 [Example 42, (S)-11,12,13,13a-tetrahydro-9-oxo-9H-imidazo[1,5-a]pyrrolo[2,1-c][1,4]benzodiazepine-1-carbonitrile] | 12.1 | 31 | –
CN1C(=O)CN=C(c2ccccc2)c2cc(Cl)ccc21 [diazepam, reference compound] | – | – | falling asleep / rousing reflex ([4]; diazepam 5 mg/kg i.v.): fall asleep immediately, no longer show rousing reflex; sleep in the lateral position, duration ([4]; diazepam 5 mg/kg i.v.): at least 60 minutes; time to slowly wake up ([4]; diazepam 5 mg/kg i.v.): about 1.5 hours; falling asleep ([4]; diazepam 10 mg/kg i.p.): fall asleep within a few minutes; sleep duration ([4]; diazepam 10 mg/kg i.p.): 2 to 3 h; protection from spasmodic seizures in the pentetrazole test ([1]; diazepam 5 mg/kg i.p., more than 900 mice): protected all experimental animals from spasmodic seizures
